Results: ChEMBL document CHEMBL5715954, “Silencing c-Myc translation as a therapeutic strategy through targeting PI3Kδ and CK1ε in hematological malignancies” (Blood, 2017)

Tests used:
Design in all cases: scale not given: the % may be the effect or the level left
[1] = molecular target: Serine/threonine-protein kinase 24 (Homo sapiens) (UniProt Q9Y6E0); assay: Inhibition of human MST3 assessed as enzyme activity at 1 uM using myelin basic protein as substrate preincubated for 20 mins followed by [gamma-33P]-ATP addition and measured after 120 mins by radiometric Hot-SpotSM Kinase assay relative to control
Chain of Serine/threonine-protein kinase 24 (Homo sapiens) (Q9Y6E0 whole entry, looked up): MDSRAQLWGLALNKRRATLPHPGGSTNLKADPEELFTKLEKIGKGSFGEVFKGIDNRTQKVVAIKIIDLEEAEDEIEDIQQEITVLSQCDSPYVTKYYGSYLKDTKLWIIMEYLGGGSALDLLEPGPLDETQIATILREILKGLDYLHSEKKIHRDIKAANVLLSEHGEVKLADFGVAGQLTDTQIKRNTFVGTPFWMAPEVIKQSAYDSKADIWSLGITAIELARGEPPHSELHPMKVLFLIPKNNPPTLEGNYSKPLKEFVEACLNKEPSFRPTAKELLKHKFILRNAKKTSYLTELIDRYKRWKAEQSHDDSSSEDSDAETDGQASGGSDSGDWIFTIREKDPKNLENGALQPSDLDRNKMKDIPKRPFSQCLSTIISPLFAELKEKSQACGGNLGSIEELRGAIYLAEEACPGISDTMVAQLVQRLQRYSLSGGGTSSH

[2] = molecular target: Protein kinase C gamma type (Homo sapiens) (UniProt P05129); assay: Inhibition of human PKCg assessed as enzyme activity at 1 uM using ERMRPRKRQGSVRRRV as substrate preincubated for 20 mins followed by [gamma-33P]-ATP addition and measured after 120 mins by radiometric Hot-SpotSM Kinase assay relative to control
[3] = molecular target: T1, NUAK family SNF1-like kinase 2 (Homo sapiens) (UniProt Q9H093); assay: Inhibition of human SNARK assessed as enzyme activity at 1 uM using KKKVSRSGLYRSPSMPENLNRPR as substrate preincubated for 20 mins followed by [gamma-33P]-ATP addition and measured after 120 mins by radiometric Hot-SpotSM Kinase assay relative to control
T1 sequence (whole entry): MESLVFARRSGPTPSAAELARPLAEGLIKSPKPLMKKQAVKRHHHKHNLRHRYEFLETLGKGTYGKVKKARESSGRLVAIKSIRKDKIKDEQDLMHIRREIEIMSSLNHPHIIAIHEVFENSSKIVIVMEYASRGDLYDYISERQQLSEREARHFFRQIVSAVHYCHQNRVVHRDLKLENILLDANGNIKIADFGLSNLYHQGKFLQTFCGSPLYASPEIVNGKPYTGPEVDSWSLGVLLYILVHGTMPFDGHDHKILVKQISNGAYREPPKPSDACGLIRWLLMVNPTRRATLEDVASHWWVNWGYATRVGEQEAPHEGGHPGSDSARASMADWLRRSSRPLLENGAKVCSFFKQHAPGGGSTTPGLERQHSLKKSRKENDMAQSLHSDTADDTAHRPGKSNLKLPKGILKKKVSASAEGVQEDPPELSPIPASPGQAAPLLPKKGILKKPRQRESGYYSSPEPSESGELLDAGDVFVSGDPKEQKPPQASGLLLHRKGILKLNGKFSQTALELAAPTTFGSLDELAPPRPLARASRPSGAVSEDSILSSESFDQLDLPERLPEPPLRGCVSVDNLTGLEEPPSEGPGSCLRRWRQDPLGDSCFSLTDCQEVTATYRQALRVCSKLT

[4] = molecular target: Serine/threonine-protein kinase WNK1 (Homo sapiens) (UniProt Q9H4A3); assay: Inhibition of human WNK1 assessed as enzyme activity at 1 uM using myelin basic protein as substrate preincubated for 20 mins followed by [gamma-33P]-ATP addition and measured after 120 mins by radiometric Hot-SpotSM Kinase assay relative to control
Chain of Serine/threonine-protein kinase WNK1 (Homo sapiens) (Q9H4A3 whole entry, looked up): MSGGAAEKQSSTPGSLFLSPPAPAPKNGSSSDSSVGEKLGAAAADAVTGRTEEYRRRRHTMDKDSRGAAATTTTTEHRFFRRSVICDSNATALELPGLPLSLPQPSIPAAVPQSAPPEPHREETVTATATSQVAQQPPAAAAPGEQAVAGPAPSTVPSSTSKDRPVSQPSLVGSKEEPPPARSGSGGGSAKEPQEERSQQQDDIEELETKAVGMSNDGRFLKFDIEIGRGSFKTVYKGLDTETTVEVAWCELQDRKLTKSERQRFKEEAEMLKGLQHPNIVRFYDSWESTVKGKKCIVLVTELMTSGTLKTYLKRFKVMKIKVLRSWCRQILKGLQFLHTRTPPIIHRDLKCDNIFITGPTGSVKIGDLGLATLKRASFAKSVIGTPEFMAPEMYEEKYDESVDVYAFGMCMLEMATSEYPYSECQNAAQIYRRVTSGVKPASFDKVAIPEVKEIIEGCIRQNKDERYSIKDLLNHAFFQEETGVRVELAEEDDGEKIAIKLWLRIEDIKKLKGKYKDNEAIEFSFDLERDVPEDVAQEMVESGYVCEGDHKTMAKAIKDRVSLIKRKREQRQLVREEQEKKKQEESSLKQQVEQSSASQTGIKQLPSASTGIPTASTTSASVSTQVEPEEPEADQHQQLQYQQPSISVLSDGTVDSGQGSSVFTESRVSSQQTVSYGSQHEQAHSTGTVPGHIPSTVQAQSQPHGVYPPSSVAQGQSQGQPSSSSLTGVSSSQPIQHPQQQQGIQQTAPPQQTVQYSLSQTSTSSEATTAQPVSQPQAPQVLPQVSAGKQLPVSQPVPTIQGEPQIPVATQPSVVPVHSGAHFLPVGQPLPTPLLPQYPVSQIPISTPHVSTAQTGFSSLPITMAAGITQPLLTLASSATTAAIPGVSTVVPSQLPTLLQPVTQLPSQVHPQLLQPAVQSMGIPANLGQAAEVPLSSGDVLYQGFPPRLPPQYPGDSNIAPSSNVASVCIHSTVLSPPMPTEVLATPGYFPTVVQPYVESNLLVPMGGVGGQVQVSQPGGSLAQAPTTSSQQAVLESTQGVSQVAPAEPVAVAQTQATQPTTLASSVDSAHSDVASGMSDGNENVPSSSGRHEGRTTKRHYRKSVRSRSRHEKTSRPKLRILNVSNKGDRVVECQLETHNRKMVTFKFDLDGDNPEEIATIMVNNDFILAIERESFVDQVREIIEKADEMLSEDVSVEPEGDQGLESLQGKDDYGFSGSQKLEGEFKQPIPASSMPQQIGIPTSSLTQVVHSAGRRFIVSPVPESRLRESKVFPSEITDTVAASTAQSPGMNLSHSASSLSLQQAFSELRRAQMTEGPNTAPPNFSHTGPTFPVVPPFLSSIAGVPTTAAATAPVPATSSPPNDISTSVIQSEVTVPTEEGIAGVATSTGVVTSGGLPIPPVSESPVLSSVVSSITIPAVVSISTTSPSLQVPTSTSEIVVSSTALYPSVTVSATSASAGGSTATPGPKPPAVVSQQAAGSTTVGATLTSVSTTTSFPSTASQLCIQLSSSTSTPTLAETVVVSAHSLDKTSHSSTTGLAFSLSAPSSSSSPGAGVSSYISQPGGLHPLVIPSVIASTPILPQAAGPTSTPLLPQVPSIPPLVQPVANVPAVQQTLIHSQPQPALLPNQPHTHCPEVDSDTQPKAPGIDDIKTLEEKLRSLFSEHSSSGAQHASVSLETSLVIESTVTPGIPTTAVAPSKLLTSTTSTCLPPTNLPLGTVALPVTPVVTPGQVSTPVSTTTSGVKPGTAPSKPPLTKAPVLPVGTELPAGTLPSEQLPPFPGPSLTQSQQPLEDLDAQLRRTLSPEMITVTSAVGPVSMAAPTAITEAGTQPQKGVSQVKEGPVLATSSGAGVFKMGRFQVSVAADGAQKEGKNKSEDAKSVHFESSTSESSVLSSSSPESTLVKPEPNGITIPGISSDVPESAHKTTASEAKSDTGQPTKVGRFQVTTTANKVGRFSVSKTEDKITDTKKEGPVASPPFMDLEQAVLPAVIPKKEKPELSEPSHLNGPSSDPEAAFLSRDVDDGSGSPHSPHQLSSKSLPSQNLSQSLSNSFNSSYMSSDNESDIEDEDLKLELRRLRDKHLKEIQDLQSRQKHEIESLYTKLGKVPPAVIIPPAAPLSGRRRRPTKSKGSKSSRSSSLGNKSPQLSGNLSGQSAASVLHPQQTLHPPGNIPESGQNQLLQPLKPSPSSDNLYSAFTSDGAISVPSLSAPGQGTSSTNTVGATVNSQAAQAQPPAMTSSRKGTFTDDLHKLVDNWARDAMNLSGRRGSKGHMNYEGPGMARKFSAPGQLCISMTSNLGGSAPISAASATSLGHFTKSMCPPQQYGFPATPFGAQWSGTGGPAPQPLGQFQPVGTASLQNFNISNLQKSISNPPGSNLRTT

[5] = molecular target: T2, Ephrin type-B receptor 2 (Homo sapiens) (UniProt P29323); assay: Inhibition of human EPHB2 assessed as enzyme activity at 1 uM using poly[Glu:Tyr] (4:1) as substrate preincubated for 20 mins followed by [gamma-33P]-ATP addition and measured after 120 mins by radiometric Hot-SpotSM Kinase assay relative to control
T2 sequence (whole entry): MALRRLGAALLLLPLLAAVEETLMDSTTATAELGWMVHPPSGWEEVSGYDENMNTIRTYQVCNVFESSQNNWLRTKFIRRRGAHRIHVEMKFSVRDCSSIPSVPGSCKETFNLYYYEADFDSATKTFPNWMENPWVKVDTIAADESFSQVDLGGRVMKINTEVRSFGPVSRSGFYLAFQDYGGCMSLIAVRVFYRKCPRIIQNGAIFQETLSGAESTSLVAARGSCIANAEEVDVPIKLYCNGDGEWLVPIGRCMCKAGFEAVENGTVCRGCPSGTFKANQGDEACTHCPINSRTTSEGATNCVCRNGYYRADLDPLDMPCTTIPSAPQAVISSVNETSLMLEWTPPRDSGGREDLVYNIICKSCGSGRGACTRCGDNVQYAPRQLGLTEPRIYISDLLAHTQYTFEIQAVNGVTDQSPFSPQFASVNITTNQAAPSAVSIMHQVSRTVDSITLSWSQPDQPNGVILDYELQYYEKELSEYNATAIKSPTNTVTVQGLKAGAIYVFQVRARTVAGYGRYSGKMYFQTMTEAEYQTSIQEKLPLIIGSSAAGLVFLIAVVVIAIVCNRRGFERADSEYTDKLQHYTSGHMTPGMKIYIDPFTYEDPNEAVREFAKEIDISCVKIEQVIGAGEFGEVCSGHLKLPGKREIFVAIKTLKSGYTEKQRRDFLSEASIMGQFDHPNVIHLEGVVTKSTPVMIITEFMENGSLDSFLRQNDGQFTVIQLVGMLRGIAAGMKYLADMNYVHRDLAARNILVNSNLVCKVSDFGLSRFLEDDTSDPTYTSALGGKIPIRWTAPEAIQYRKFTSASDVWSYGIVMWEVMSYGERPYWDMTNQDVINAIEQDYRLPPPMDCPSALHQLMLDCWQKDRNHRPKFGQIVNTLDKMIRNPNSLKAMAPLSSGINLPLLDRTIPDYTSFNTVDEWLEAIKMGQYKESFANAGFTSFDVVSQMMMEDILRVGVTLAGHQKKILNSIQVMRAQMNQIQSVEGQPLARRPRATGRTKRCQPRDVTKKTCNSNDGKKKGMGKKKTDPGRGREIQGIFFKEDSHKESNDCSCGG

[6] = molecular target: CDK4/Cyclin D3 (Homo sapiens) (UniProt P11802+P30281); assay: Inhibition of human CDK4/cyclin D3 assessed as enzyme activity at 1 uM using RB-CTF as substrate preincubated for 20 mins followed by [gamma-33P]-ATP addition and measured after 120 mins by radiometric Hot-SpotSM Kinase assay relative to control; type: protein-complex assay

| SMILES | Activity [1] [%] | Activity [2] [%] | Activity [3] [%] | Activity [4] [%] | Activity [5] [%] | Activity [6] [%] |
| --- | --- | --- | --- | --- | --- | --- |
| CC[C@H](Nc1ncnc2[nH]cnc12)c1nc2cccc(F)c2c(=O)n1-c1ccccc1 | 88.2 | 96 | 93.2 | 90.7 | 91.9 | 99.3 |
| C[C@H](Nc1ncnc2nc[nH]c12)c1cc2cccc(Cl)c2c(=O)n1-c1ccccc1 | 87.3 | 97.3 | 93.2 | 79.4 | 92 | 97.5 |
| CC(C)Oc1ccc(-c2nn([C@@H](C)c3oc4ccc(F)cc4c(=O)c3-c3cccc(F)c3)c3ncnc(N)c23)cc1F [UMBRALISIB] | 81.6 | 99.8 | 95.9 | 100 | 95.9 | 98.8 |
